In brackets after ≈: the same amount, converted by molar mass.
Legend:
[1] = in vitro; conditions: human
[2] = Kinetic solubility of compound at pH 7.4; conditions: buffer
[3] = tested on: MCF7; assay: cells; conditions: Homo sapiens, MCF7, 72 h
Description: Antiproliferative activity against human MCF-7 cells incubated for 72 hrs by Cell-titer Glo assay

[4] = in vitro; conditions: rat
[5] = target: T1, Estrogen receptor (Homo sapiens, UniProt P03372)
T1 sequence (P03372 whole entry): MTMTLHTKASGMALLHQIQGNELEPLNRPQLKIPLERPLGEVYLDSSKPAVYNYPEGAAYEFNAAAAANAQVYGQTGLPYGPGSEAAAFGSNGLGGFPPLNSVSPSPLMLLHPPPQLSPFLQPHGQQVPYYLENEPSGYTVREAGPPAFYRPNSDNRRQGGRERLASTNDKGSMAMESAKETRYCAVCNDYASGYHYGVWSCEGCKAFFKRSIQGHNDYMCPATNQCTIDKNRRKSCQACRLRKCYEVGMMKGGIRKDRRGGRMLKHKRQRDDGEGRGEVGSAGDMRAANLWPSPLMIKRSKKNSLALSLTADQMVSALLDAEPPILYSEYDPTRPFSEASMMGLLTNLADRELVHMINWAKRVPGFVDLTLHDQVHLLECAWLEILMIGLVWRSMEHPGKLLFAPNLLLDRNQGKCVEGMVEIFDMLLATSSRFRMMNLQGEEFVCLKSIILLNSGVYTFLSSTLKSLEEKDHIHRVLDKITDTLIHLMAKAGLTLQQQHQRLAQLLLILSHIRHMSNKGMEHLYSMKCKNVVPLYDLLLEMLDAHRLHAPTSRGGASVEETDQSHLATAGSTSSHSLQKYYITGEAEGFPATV
Description: Antagonist activity at estrogen receptor in human T47D cells incubated for 18 hrs by ultra high sensitivity luminescence reporter gene assay

[6] = target: T1, Estrogen receptor; conditions: mcf7
Description: Induction of estrogen receptor degradation in human MCF7 cells incubated for 4 hrs by Alexafluor -488 conjugate anti-mouse IgG staining based fluorescence method

[7] = in vitro; conditions: rat; remark: listed apart in the source
[8] = in vivo; conditions: Sprague-Dawley, rat, iv, 1 mg/kg
[9] = rat, in vivo, iv, 1 mg/kg
[10] = target: Nav1.5 (Homo sapiens, UniProt Q14524); assay: Inhibition of human Nav1.5 expressed in CHO cells at 10 uM by QPatch HT assay; conditions: CHO cells expressing human Nav1.5
Chain of Nav1.5 (Q14524 whole entry): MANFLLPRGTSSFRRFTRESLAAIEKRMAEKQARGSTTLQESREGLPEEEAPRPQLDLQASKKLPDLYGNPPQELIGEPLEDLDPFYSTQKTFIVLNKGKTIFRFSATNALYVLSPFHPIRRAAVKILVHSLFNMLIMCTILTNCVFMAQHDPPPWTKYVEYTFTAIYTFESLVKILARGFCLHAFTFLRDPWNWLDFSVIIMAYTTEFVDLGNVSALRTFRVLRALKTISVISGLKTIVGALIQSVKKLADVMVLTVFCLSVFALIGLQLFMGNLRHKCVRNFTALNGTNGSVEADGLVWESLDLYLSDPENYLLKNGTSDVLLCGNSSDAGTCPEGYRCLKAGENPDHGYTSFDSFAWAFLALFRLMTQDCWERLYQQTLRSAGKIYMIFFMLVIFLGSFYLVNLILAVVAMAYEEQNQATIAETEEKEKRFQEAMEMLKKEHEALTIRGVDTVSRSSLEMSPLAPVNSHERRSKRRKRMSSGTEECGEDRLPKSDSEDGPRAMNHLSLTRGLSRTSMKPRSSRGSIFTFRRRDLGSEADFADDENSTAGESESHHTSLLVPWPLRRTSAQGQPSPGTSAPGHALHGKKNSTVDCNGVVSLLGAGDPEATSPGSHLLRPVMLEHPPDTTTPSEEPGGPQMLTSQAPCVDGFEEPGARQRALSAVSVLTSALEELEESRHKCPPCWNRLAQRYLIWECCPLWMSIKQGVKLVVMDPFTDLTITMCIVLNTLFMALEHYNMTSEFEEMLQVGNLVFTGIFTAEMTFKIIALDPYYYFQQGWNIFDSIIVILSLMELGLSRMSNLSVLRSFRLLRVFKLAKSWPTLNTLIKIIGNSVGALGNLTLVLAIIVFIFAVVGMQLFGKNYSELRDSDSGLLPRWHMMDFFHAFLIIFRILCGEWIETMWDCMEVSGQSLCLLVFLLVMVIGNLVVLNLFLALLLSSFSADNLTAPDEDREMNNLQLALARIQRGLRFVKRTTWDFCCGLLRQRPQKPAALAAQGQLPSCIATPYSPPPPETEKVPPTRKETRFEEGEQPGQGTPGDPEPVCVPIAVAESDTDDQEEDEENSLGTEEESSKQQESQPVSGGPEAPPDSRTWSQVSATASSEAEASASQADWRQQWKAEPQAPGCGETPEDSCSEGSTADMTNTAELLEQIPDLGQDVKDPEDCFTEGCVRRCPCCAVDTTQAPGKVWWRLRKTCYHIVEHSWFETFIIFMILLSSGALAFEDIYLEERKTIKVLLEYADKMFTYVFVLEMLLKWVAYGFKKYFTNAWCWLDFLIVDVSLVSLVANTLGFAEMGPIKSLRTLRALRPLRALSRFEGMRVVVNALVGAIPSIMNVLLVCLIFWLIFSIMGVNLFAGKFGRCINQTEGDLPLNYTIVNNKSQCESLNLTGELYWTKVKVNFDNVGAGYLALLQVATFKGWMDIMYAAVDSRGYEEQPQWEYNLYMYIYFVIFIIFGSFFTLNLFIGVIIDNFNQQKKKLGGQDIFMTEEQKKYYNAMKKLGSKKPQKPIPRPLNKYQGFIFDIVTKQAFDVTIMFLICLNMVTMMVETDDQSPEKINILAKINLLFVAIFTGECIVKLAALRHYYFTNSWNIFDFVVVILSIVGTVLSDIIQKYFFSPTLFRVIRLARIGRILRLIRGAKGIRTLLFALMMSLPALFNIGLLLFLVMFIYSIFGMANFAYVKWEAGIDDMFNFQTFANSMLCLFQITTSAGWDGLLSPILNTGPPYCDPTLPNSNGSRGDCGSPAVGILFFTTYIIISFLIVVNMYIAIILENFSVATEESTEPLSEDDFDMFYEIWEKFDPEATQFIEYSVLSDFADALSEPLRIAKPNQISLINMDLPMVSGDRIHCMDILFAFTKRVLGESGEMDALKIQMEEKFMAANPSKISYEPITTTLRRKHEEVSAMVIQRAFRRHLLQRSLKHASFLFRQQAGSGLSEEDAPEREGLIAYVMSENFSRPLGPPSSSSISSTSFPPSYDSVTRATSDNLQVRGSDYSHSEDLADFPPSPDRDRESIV

[11] = target: Cav1.2 (Homo sapiens, UniProt Q13936); assay: Inhibition of human Cav1.2 expressed in CHO cells at 10 uM by QPatch HT assay; conditions: CHO cells expressing human Cav1.2
Chain of Cav1.2 (Q13936 whole entry): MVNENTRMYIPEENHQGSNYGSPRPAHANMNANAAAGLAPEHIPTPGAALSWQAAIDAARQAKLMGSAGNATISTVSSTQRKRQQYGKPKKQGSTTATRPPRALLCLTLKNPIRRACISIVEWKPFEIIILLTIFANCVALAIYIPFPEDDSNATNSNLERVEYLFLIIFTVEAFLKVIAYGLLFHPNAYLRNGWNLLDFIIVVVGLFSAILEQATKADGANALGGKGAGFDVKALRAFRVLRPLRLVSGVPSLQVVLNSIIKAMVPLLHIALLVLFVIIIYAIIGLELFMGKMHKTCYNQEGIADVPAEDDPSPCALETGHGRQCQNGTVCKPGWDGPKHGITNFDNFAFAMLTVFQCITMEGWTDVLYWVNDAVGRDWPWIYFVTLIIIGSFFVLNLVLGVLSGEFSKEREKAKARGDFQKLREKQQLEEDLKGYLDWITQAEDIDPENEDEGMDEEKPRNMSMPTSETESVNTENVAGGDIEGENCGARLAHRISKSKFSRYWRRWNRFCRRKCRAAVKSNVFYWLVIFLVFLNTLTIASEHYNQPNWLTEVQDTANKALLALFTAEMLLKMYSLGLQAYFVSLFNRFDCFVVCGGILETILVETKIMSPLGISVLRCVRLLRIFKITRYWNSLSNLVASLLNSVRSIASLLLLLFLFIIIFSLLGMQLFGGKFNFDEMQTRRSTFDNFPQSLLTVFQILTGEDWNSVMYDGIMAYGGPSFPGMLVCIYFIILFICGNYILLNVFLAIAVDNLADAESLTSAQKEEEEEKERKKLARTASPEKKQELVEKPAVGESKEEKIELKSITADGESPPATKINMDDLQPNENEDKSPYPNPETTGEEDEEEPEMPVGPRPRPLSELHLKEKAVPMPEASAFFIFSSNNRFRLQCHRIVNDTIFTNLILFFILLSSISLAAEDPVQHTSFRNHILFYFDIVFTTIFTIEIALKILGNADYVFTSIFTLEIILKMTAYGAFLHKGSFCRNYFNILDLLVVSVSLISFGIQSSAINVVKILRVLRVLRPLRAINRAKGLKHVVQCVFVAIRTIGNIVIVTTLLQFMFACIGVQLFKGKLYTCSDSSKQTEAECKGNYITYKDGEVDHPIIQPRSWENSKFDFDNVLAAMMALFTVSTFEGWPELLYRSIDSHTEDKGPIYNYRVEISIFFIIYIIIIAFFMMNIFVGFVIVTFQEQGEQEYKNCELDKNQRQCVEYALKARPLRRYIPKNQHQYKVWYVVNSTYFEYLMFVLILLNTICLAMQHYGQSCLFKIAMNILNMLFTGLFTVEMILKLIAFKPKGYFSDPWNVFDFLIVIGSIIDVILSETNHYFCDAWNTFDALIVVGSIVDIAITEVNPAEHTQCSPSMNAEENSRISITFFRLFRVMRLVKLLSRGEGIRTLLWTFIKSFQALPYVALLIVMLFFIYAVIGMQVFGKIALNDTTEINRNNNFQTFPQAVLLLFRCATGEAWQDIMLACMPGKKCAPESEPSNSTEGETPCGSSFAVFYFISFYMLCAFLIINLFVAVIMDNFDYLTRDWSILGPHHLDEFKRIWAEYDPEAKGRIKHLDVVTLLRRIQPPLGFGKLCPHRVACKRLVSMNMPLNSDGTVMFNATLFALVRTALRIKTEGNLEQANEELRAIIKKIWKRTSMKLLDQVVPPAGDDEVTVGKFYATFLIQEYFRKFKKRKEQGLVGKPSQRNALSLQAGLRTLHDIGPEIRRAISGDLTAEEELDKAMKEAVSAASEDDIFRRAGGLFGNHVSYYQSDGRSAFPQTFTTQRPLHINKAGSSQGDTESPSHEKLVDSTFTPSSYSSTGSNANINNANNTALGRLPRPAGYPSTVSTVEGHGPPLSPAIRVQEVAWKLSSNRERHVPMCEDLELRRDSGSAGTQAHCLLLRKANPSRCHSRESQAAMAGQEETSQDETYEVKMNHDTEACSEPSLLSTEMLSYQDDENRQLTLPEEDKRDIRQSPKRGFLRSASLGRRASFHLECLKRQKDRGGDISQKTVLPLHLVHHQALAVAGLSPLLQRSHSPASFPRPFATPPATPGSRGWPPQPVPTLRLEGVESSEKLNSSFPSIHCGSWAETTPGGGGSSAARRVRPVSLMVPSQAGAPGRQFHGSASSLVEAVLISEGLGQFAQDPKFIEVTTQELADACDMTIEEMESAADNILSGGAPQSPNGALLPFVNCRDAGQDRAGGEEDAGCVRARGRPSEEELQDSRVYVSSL

[12] = in vitro; conditions: human; remark: listed apart in the source
[13] = Apparent permeability in MDCK cells across apical to basolateral side at 10 uM incubated for 3 hrs by LC-MS/MS analysis; conditions: dog
[14] = Distribution coefficient, logD of the compound at pH 7.4; conditions: octanol/water
[15] = target: T2, Estrogen receptor (Homo sapiens) (UniProt P03372); conditions: MCF7, dose 0.0002-100 nM, time 4.0 hrs
T2 sequence (whole entry): T1 sequence (P03372 whole entry)

[16] = target: T2, Estrogen receptor (Homo sapiens); conditions: MCF7, dose 1.0 nM, time 0.5-24 hrs
[17] = in vivo; conditions: Sprague-Dawley, rat, po, 5 mg/kg
[18] = in vivo; conditions: Sprague-Dawley, rat, po, 1 mg/kg
[19] = Clearance in Sprague-Dawley rat at 1 mg/kg, iv or po measured after 0.033 to 24 hrs by LC/MS/MS analysis; conditions: in vivo

SMILES	CLint scaled at 1 h, 1 µM ([1]; microsomes) [mL/min/kg]	solubility kinetic [2] [µM]	EC50 [3] [nM]	CLint scaled at 1 h, 1 µM ([4]; microsomes) [mL/min/kg]	DC50 [6] [nM]	CLint scaled at 1 h ([7]; hepatocytes) [mL/min/kg]	logD [14]	CLint scaled at 1 h ([12]; hepatocytes) [mL/min/kg]	also measured
C[C@@H]1Cc2c([nH]c3ccccc23)[C@@H](c2ccc(NC3CN(CCCF)C3)nc2)N1CC(F)(F)CO	6	114 (≈ 55.6 µg/mL)	> 200	23	> 1000	–	–	–	IC50 [5]: > 1000 nM
C[C@@H]1Cc2c([nH]c3ccc(F)cc23)[C@@H](c2c(F)cc(NC3CN(CCCF)C3)cc2F)N1CC(F)(F)CO	–	–	0.5	–	–	–	–	–	CLint scaled at 1 h, 1 µM ([1]; human liver microsomes): 10 mL/min/kg; CLint scaled at 1 h ([7]; rat hepatocytes): 15 mL/min/kg; clearance [8]: 18 mL/min/kg; CL free [9]: 1475 mL/min/kg; inhibition at 10 µM [10]: 14%; inhibition at 10 µM [11]: 10.7%; CLint scaled at 1 h, 1 µM ([4]; rat liver microsomes): 14 mL/min/kg; CLint scaled at 1 h ([12]; human hepatocytes): 10 mL/min/kg
C[C@@H]1Cc2c([nH]c3ccccc23)[C@@H](c2c(F)cc(NC3CN(CCC(F)F)C3)cc2F)N1CC(F)(F)CO	12	42 (≈ 22.7 µg/mL)	0.8	25	0.02	–	–	–	IC50 [5]: 0.09 nM
C[C@@H]1Cc2c([nH]c3cccc(F)c23)[C@@H](c2c(F)cc(NC3CN(CCCF)C3)cc2F)N1CC(F)(F)CO	12	92 (≈ 49.7 µg/mL)	0.5	19	0.04	23	3.3	12	clearance [8]: 27 mL/min/kg; Papp A→B at 3 h, 10 µM [13]: 0.9 ×10⁻⁶ cm/s; IC50 [5]: 0.15 nM
C[C@@H]1Cc2c([nH]c3ccccc23)[C@@H](c2c(F)cc(NCCNCCCF)cc2F)N1CC(F)(F)CO	7	199 (≈ 102 µg/mL)	0.6	< 6	0.27	–	–	–	Emax [15]: 90%
C[C@]12CC[C@@H]3c4ccc(O)cc4C[C@@H](CCCCCCCCC[S+]([O-])CCCC(F)(F)C(F)(F)F)[C@H]3[C@@H]1CC[C@@H]2O (stereo not given in full) [FULVESTRANT]	–	3 (≈ 1.82 µg/mL)	2.4	–	–	29	> 5	15	T1/2 [16]: 2.2 h; Emax [15]: 103%
CC1=C(c2cccc(O)c2)[C@H](c2ccc(OCCN3CC(CF)C3)cc2)Oc2ccc(O)cc21	–	47 (≈ 21.7 µg/mL)	–	–	–	46	–	–	Papp A→B at 3 h, 10 µM [13]: 4.6 ×10⁻⁶ cm/s; T1/2 [16]: 6 h; Emax [15]: 97%; bioavailability [17]: 17%
C[C@@H]1Cc2c([nH]c3ccccc23)[C@@H](c2c(F)cc(OC3CN(CCCF)C3)cc2F)N1CC(C)(C)F	–	1 (≈ 0.504 µg/mL)	0.7	–	–	29	4.8	7	bioavailability [18]: 31%; clearance [8]: 19 mL/min/kg; Papp A→B at 3 h, 10 µM [13]: 0.4 ×10⁻⁶ cm/s; clearance [19]: 19 mL/min/kg
C[C@@H]1Cc2c([nH]c3ccccc23)[C@@H](c2c(F)cc(OC3CN(CCCO)C3)cc2F)N1CC(F)(F)CO	9	163 (≈ 85 µg/mL)	0.6	10	0.03	–	–	–	IC50 [5]: 0.08 nM
CC/C(=C(\c1ccccc1)c1ccc(OCCN(C)C)cc1)c1ccccc1 [TAMOXIFEN]	–	–	> 200	–	–	33	–	12	clearance [19]: 95 mL/min/kg; bioavailability [17]: 69%
CC/C(=C(/c1ccc(/C=C/C(=O)O)cc1)c1ccc2[nH]ncc2c1)c1ccc(F)cc1Cl [BRILANESTRANT]	–	19 (≈ 8.49 µg/mL)	17	–	–	6	3.8	15	Papp A→B at 3 h, 10 µM [13]: 2.3 ×10⁻⁶ cm/s; clearance [19]: 40 mL/min/kg; bioavailability [17]: 30%
C[C@@H]1Cc2c([nH]c3ccccc23)[C@@H](c2c(F)cc(O[C@H]3CCN(CCCF)C3)cc2F)N1CC(F)(F)CO	15	35 (≈ 18.8 µg/mL)	0.3	35	0.12	–	–	–	–
C[C@@H]1Cc2c([nH]c3ccccc23)[C@@H](c2c(F)cc(OCCN3CC(CF)C3)cc2F)N1CC(C)(C)F	10	10 (≈ 5.04 µg/mL)	1	29	–	29	4	6	bioavailability [18]: 31%; clearance [19]: 34 mL/min/kg
CC/C(=C(\c1ccc(O)cc1)c1ccc(OCCN(C)C)cc1)c1ccccc1 [AFIMOXIFENE]	–	31 (≈ 12 µg/mL)	3.5	–	–	32	4	14	–
C[C@@H]1Cc2c([nH]c3ccccc23)[C@@H](c2c(F)cc(OCCNCCCF)cc2F)N1CC(F)(F)CO	–	–	0.9	–	–	–	–	–	–
C[C@@H]1Cc2c(ccc3[nH]ncc23)[C@@H](c2c(F)cc(OCCN3CC(CF)C3)cc2F)N1CC(C)(C)F	17	1 (≈ 0.505 µg/mL)	0.8	44	0.06	–	–	–	IC50 [5]: 0.2 nM
C[C@@H]1Cc2c([nH]c3ccccc23)[C@@H](c2c(F)cc(N[C@H]3CCN(CCCF)C3)cc2F)N1CC(F)(F)CO	11	80 (≈ 42.9 µg/mL)	0.3	26	0.16	–	–	–	–
